# Laboratory results published in ChEMBL document CHEMBL1136565, “5-Azidoepibatidine: an exceptionally potent photoaffinity ligand for neuronal alpha 4 beta 2 and alpha 7 nicotinic acetylcholine receptors” (Bioorg Med Chem Lett, 2003).
# Columns and labels:
# [1] = Binding affinity to Drosophila nicotinic receptor was measured using [3H]imidacloprid as radioligand; design: species or system Drosophila melanogaster
# [2] = target: Neuronal acetylcholine receptor subunit alpha-7 (Homo sapiens, UniProt P36544); test: Binding affinity to alpha-7 receptor subtype from human neuroblastoma SH-SY5Y cells was measured using [125I]-alpha-bungarotoxin as radioligand; type: cell-based
# Sequence of Neuronal acetylcholine receptor subunit alpha-7 (P36544 whole entry): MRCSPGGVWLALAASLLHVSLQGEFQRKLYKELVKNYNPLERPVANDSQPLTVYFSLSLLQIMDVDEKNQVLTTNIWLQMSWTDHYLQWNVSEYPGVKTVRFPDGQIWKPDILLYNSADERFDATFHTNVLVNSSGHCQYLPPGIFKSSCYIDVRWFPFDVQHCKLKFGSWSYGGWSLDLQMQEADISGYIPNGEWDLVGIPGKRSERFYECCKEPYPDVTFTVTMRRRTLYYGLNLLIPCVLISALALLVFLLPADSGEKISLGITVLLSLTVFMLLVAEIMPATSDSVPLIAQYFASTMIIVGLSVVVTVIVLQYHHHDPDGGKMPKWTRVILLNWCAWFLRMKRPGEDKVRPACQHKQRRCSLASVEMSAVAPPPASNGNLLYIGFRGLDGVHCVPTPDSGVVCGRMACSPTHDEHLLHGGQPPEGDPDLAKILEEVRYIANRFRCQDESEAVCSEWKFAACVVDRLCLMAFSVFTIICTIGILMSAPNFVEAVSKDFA
# [3] = target: Neuronal acetylcholine receptor; alpha4/beta2 (Homo sapiens, UniProt P17787+P43681); test: Binding affinity to alpha4 beta-2 receptor subtype from mouse fibroblast M10 cells was measured using [3 H]nicotine; type: cell-based
# Sequence of Neuronal acetylcholine receptor; alpha4/beta2 (P17787 whole entry): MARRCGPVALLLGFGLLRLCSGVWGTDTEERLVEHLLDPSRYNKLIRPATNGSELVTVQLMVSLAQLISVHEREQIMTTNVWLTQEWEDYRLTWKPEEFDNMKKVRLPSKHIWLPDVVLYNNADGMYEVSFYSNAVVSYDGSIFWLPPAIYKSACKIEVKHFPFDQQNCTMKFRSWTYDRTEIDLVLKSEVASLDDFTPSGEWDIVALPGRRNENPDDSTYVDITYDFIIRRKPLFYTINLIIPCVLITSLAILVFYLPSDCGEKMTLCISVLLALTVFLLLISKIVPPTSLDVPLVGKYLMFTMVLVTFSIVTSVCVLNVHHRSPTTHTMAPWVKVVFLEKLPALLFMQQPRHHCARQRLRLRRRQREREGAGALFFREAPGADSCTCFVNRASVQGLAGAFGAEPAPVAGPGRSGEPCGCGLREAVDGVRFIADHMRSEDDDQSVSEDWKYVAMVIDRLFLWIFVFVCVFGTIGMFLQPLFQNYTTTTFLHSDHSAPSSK
# Sequence of Neuronal acetylcholine receptor; alpha4/beta2 (P43681 whole entry): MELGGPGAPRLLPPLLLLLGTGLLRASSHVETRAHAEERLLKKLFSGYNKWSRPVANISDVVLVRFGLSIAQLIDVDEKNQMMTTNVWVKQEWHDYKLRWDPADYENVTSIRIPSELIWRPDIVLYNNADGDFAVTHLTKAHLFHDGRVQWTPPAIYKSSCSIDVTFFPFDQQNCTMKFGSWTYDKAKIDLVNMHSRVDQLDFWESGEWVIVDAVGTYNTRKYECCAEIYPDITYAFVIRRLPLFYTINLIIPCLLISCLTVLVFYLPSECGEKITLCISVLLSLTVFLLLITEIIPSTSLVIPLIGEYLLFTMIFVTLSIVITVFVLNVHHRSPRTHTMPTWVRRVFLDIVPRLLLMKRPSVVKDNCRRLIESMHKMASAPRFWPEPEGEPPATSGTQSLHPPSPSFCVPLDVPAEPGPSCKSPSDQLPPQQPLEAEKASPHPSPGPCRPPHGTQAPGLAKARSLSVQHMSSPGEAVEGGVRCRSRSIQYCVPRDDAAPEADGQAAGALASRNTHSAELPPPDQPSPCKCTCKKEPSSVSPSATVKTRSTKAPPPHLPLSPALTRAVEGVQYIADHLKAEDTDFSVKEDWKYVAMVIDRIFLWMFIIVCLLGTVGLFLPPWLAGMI
Structure (SMILES),Ki [1] [nM],Ki [2] [nM],Ki [3] [nM]
Clc1ccc(C2CC3CCC2N3)cn1 (stereo not given) [EPIBATIDINE],200,10.2,
[N-]=[N+]=Nc1cc(C2CC3CCC2N3)cnc1Cl (stereo not given) [AZIDOEPIBATIDINE],2100,9.7,0.027
